Target: T1, APOL1 (Homo sapiens, UniProt O14791)
T1 sequence (O14791 1-398 S342G/I384M): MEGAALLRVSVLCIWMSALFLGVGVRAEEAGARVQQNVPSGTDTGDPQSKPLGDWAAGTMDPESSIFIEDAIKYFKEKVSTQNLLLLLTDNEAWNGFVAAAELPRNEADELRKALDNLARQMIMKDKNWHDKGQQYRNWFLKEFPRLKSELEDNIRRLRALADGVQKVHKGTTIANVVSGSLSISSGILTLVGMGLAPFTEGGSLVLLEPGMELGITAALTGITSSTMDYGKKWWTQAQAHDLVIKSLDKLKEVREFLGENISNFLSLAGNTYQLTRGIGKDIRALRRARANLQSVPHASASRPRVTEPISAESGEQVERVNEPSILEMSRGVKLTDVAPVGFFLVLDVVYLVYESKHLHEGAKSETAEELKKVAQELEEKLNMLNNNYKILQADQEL
Test: MultiTox-Fluor Multiplex Cytotoxicity Assay in tet-inducible APOL1 T-REx-HEK293 cells (cell rescue, ratio of dead to live cells)
Type: cell-based
Details: tet-inducible transgenic APOL1 T-REx-HEK293 cell lines, 50 ng/mL tet, 24 hours; read-out: IP50 (i.e., IC50 for cell proliferation)
Method in brief: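 T-REx-HEK293 cells with tet-inducible APOL1 were treated with compound (10 μM top, 10-point 3-fold dilution, duplicate) plus 50 ng/mL tetracycline for 24 h at 37° C, in DMEM with 2% tet-free FBS. MultiTox-Fluor protease signals gave a dead/live ratio, normalized to no tet (100% viability) and tet alone (0%).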

| SMILES | IC50 [µM] |
| --- | --- |
| CCc1cc2c(s1)CCO[C@@]21CCN(CC2CN(C(=O)OC)C2)[C@@H](C)C1 [Compound 424, methyl 3-[[(2′S,4R)-2-ethyl-2′-methyl-spiro[6,7-dihydrothieno[3,2-c]pyran-4,4′-piperidine]-1′-yl]methyl]azetidine-1-carboxylate] | 0.5 to 1 |
| CCc1cc2c(s1)CCO[C@@]21CCN(CC2CN(C(=O)c3ccon3)C2)[C@@H](C)C1 [Compound 425] | < 0.1 |
| CCc1cc2c(s1)CCO[C@@]21CCN(CC2CN(C(=O)c3nonc3C)C2)[C@@H](C)C1 [Compound 426] | < 0.1 |
| CCc1cc2c(s1)CCO[C@@]21CCN(CC2CN(C(=O)c3ccnn3C)C2)[C@@H](C)C1 [Compound 427] | < 0.1 |
| CCc1cc2c(s1)CCO[C@@]21CCN(CC2CN(C(=O)c3cccc(CO)c3)C2)[C@@H](C)C1 [Compound 428] | < 0.1 |
| CCc1cc2c(s1)CCO[C@@]21CCN(CC2CN(C(=O)c3cnn(C)c3)C2)[C@@H](C)C1 [Compound 429] | < 0.1 |
| CCc1cc2c(s1)CCO[C@@]21CCN(CC2CN(C(=O)c3ccncc3)C2)[C@@H](C)C1 [Compound 430] | < 0.1 |
| CCc1cc2c(s1)CCO[C@@]21CCN(CC2CN(C(=O)c3ccccc3)C2)[C@@H](C)C1 [Compound 431] | < 0.1 |
| CCc1cc2c(s1)CCO[C@@]21CCN(CC2CN(C(=O)C(C)S(C)(=O)=O)C2)[C@@H](C)C1 (stereo partly shown) [Compound 432] | < 0.1 |
| CCc1cc2c(s1)CCO[C@@]21CCN(CC2CN(C(=O)c3cn[nH]c3)C2)[C@@H](C)C1 [Compound 433] | < 0.1 |
| CCc1cc2c(s1)CCO[C@@]21CCN(CC2CN(C(=O)CCC3CCCC3)C2)[C@@H](C)C1 [Compound 434] | < 0.1 |
| CCc1cc2c(s1)CCO[C@@]21CCN(CC2CN(C(=O)CCCS(C)(=O)=O)C2)[C@@H](C)C1 [Compound 435] | < 0.1 |
| CCc1cc2c(s1)CCO[C@@]21CCN(CC2CN(C(=O)COC)C2)[C@@H](C)C1 [Compound 436] | < 0.1 |
| CCc1cc2c(s1)CCO[C@@]21CCN(CC2CN(C(=O)C3(O)CCOCC3)C2)[C@@H](C)C1 [Compound 437] | < 0.1 |
| CCc1cc2c(s1)CCO[C@@]21CCN(CC2CN(C(=O)Cc3ccncc3)C2)[C@@H](C)C1 [Compound 438] | < 0.1 |
| CCc1cc2c(s1)CCO[C@@]21CCN(CC2CN(C(=O)CCCOC)C2)[C@@H](C)C1 [Compound 439] | < 0.1 |
| CCc1cc2c(s1)CCO[C@@]21CCN(CC2CN(C(=O)C3COCCO3)C2)[C@@H](C)C1 (stereo partly shown) [Compound 440] | < 0.1 |
| CCc1cc2c(s1)CCO[C@@]21CCN(CC2CN(C(=O)Cc3ccncn3)C2)[C@@H](C)C1 [Compound 441] | < 0.1 |
| CCc1cc2c(s1)CCO[C@@]21CCN(CC2CN(C(=O)COC(C)(C)C)C2)[C@@H](C)C1 [Compound 442] | < 0.1 |
| CCc1cc2c(s1)CCO[C@@]21CCN(CC2CN(C(=O)C(C)(C)O)C2)[C@@H](C)C1 [Compound 443] | < 0.1 |
| CCc1cc2c(s1)CCO[C@@]21CCN(CC2CN(C(=O)CC3CCS(=O)(=O)CC3)C2)[C@@H](C)C1 [Compound 444] | < 0.1 |
| CCc1cc2c(s1)CCO[C@@]21CCN(CC2CN(C(=O)CN3CCS(=O)(=O)CC3)C2)[C@@H](C)C1 [Compound 445] | < 0.1 |

| SMILES | IC50 [µM] |
| --- | --- |
| CCc1cc2c(s1)CCO[C@@]21CCN(CC2CN(C(=O)C3CCS(=O)(=O)N3)C2)[C@@H](C)C1 (stereo partly shown) [Compound 446] | < 0.1 |
| CCc1cc2c(s1)CCO[C@@]21CCN(CC2CN(C(=O)CCO)C2)[C@@H](C)C1 [Compound 447] | 0.1 to 0.5 |
| CCc1cc2c(s1)CCO[C@@]21CCN(CC2CN(C(=O)C3CCCCC3)C2)[C@@H](C)C1 [Compound 448] | 0.1 to 0.5 |
| CCc1cc2c(s1)CCO[C@@]21CCN(CC2CN(C(=O)CS(C)(=O)=O)C2)[C@@H](C)C1 [Compound 449] | 0.1 to 0.5 |
| CCc1cc2c(s1)CCO[C@@]21CCN(CC2CN(C(=O)CC3CS(=O)(=O)C3)C2)[C@@H](C)C1 [Compound 450] | 0.1 to 0.5 |
| CCc1cc2c(s1)CCO[C@@]21CCN(CC2CN(C(=O)C3C4COCC43)C2)[C@@H](C)C1 (stereo partly shown) [Compound 451] | 0.1 to 0.5 |
| CCc1cc2c(s1)CCO[C@@]21CCN(CC2CN(C(=O)CO)C2)[C@@H](C)C1 [Compound 452] | 0.1 to 0.5 |
| CCc1cc2c(s1)CCO[C@@]21CCN(CC2CN(C(=O)CCS(N)(=O)=O)C2)[C@@H](C)C1 [Compound 453] | 0.1 to 0.5 |
| CCc1cc2c(s1)CCO[C@@]21CCN(CC2CN(C(=O)CCS(C)(=O)=O)C2)[C@@H](C)C1 [Compound 454] | 0.1 to 0.5 |
| CCc1cc2c(s1)CCO[C@@]21CCN(CC2CN(C(=O)Cc3cnn(C)c3)C2)[C@@H](C)C1 [Compound 455] | 0.1 to 0.5 |
| CCc1cc2c(s1)CCO[C@@]21CCN(CC2CN(C(=O)CS(=O)(=O)c3ccccc3)C2)[C@@H](C)C1 [Compound 456] | 0.1 to 0.5 |
| CCc1cc2c(s1)CCO[C@@]21CCN(CC2CN(C(=O)C(C)(C)C)C2)[C@@H](C)C1 [Compound 457] | 0.5 to 1 |
| CCc1cc2c(s1)CCO[C@@]21CCN(CC2CN(C(=O)c3cnc(C#N)nc3)C2)[C@@H](C)C1 [Compound 458] | 0.1 to 0.5 |
| CCc1cc2c(s1)CCO[C@@]21CCN(CC2CN(C(=O)CS(=O)(=O)CC)C2)[C@@H](C)C1 [Compound 459] | < 0.1 |
| CCc1cc2c(s1)CCO[C@@]21CCN(CC2CN(C(=O)c3c[nH]c(C(F)(F)F)n3)C2)[C@@H](C)C1 [Compound 460] | < 0.1 |
| CCc1cc2c(s1)CCO[C@@]21CCN(CC2CN(C(=O)c3cc(C(F)F)[nH]n3)C2)[C@@H](C)C1 [Compound 461] | < 0.1 |
| CCc1cc2c(s1)CCO[C@@]21CCN(CC2CN(C(=O)c3cc(C(F)(F)F)n[nH]3)C2)[C@@H](C)C1 [Compound 462] | < 0.1 |
| CCc1cc2c(s1)CCO[C@@]21CCN(CC2CN(C(=O)c3ccc(=O)oc3)C2)[C@@H](C)C1 [Compound 463] | 0.1 to 0.5 |
| CCc1cc2c(s1)CCO[C@@]21CCN(CC2CN(C(=O)Cn3cnnn3)C2)[C@@H](C)C1 [Compound 464] | < 0.1 |
| CCc1cc2c(s1)CCO[C@@]21CCN(CC2CN(C(=O)CC3CCS(=O)(=O)C3)C2)[C@@H](C)C1 (stereo partly shown) [Compound 465] | < 0.1 |
| CCc1cc2c(s1)CCO[C@@]21CCN(CC2CN(C(=O)c3ncc(OC)o3)C2)[C@@H](C)C1 [Compound 466] | < 0.1 |
| CCc1cc2c(s1)CCO[C@@]21CCN(CC2CN(C(=O)[C@@H]3CSC(=O)N3)C2)[C@@H](C)C1 [Compound 467] | < 0.1 |

| SMILES | IC50 [µM] |
| --- | --- |
| CCc1cc2c(s1)CCO[C@@]21CCN(CC2CN(C(=O)c3ncc[nH]3)C2)[C@@H](C)C1 [Compound 468] | < 0.1 |
| CCc1cc2c(s1)CCO[C@@]21CCN(CC2CN(C(=O)c3cc[nH]n3)C2)[C@@H](C)C1 [Compound 469] | < 0.1 |
| CCc1cc2c(s1)CCO[C@@]21CCN(CC2CN(C(=O)c3ncc(C)[nH]3)C2)[C@@H](C)C1 [Compound 470] | < 0.1 |
| CCc1cc2c(s1)CCO[C@@]21CCN(CC2CN(C(=O)CCCc3c[nH]nn3)C2)[C@@H](C)C1 [Compound 471] | < 0.1 |
| CCc1cc2c(s1)CCO[C@@]21CCN(CC2CN(C(=O)C3CC(=O)NC3=O)C2)[C@@H](C)C1 (stereo partly shown) [Compound 472] | < 0.1 |
| CCc1cc2c(s1)CCO[C@@]21CCN(CC2CN(C(=O)[C@@H](C)NS(C)(=O)=O)C2)[C@@H](C)C1 [Compound 473] | 0.1 to 0.5 |
| CCc1cc2c(s1)CCO[C@@]21CCN(CC2CN(C(=O)c3ncon3)C2)[C@@H](C)C1 [Compound 474] | < 0.1 |
| CCc1cc2c(s1)CCO[C@@]21CCN(CC2CN(C(=O)c3ccn(CO)n3)C2)[C@@H](C)C1 [Compound 475] | < 0.1 |
| CCc1cc2c(s1)CCO[C@@]21CCN(CC2CN(C(=O)c3nnc(C)o3)C2)[C@@H](C)C1 [Compound 476] | < 0.1 |
| CCc1cc2c(s1)CCO[C@@]21CCN(CC2CN(C(=O)CN3CCOC3=O)C2)[C@@H](C)C1 [Compound 477] | < 0.1 |
| CCc1cc2c(s1)CCO[C@@]21CCN(CC2CN(C(=O)C3CNC(=O)O3)C2)[C@@H](C)C1 (stereo partly shown) [Compound 478] | 0.1 to 0.5 |
| CCc1cc2c(s1)CCO[C@@]21CCN(CC2CN(C(=O)c3cc(CO)n[nH]3)C2)[C@@H](C)C1 [Compound 479] | < 0.1 |
| CCc1cc2c(s1)CCO[C@@]21CCN(CC2CN(C(=O)CNC(C)=O)C2)[C@@H](C)C1 [Compound 480] | 0.1 to 0.5 |
| CCc1cc2c(s1)CCO[C@@]21CCN(CC2CN(C(=O)[C@H](C)NC(C)=O)C2)[C@@H](C)C1 [Compound 481] | 0.1 to 0.5 |
| CCc1cc2c(s1)CCO[C@@]21CCN(CC2CN(C(=O)C(=O)c3cnc[nH]3)C2)[C@@H](C)C1 [Compound 482] | < 0.1 |
| CCc1cc2c(s1)CCO[C@@]21CCN(CC2CN(C(=O)Cn3cncn3)C2)[C@@H](C)C1 [Compound 483] | 0.1 to 0.5 |
| CCc1cc2c(s1)CCO[C@@]21CCN(CC2CN(C(=O)C3CCNC3=O)C2)[C@@H](C)C1 (stereo partly shown) [Compound 484] | < 0.1 |
| CCc1cc2c(s1)CCO[C@@]21CCN(CC2CN(C(=O)c3ccc(=O)[nH]c3)C2)[C@@H](C)C1 [Compound 485] | < 0.1 |
| CCc1cc2c(s1)CCO[C@@]21CCN(CC2CN(C(=O)c3n[nH]c(=O)[nH]3)C2)[C@@H](C)C1 [Compound 486] | 0.1 to 0.5 |
| CCc1cc2c(s1)CCO[C@@]21CCN(CC2CN(C(=O)[C@H]3CCC(=O)N3)C2)[C@@H](C)C1 [Compound 487] | 0.1 to 0.5 |
